Consider one compound from US20110071220A1, “Use of Tetronic Acid Derivatives for Fighting Insects and Red Spider Mites by Watering on the Ground, Droplet Application or Immersion Application” (Bayer CropScience AG, priority 2008, published 2011).

Format in all cases: in vivo
Series [1] concerns greenhouse red spider mite (Tetranychus urticae). In words: Tetranychus urticae test, soil application in rock wool (eggplants). The settings on record: 10 mg of ai/plant. As to the method:
To produce a suitable solution, the product is mixed with water and diluted with water to the desired concentration. The desired amount of additive is added to the mixtures. Eggplants (Solanum melongena) are cultivated in rock wool. At the 4-leaf stage, the product solution in question is applied to the rock wool. The stated concentration refers to the amount of active compound per plant.
At the desired point in time, the plants are infested with a mixed population of the greenhouse red spider mite (Tetranychus urticae).
After the desired period of time, the effect in % is determined. 100% means that all spider mites have been killed; 0% means that none of the spider mites have been killed.

Series [2] deals with whiteflies (Bemisia tabaci). In words: Bemisia tabaci test on cucumbers, drench application in rock wool. Particulars: 20 mg of ai/plant, days between application and infestation −11, mortality determined 18 days after infestation. The method, then:
(§1) To produce a suitable solution, the product is mixed with water and diluted with water to the desired concentration. The desired amount of additive is added to the mixtures.
Cucumbers (Cucumis sativa) are cultivated in rock wool and infested with whiteflies (Bemisia tabaci). At the 2-leaf stage, the product solution in question is applied to the rock wool. The stated concentration refers to the amount of active compound per plant.
(§2) After the desired period of time, the effect in % is determined. 100% means that all the whiteflies have been killed; 0% means that none of the whiteflies have been killed.

Series [3] deals with whiteflies (Bemisia tabaci). Nature of the series: Bemisia tabaci test on tomatoes, drench application in rock wool. Particulars: 5 mg of ai/plant; tomato plants in rock wool; days between application and infestation −11; mortality determined 25 days after infestation. The method, then: as §1
Tomato plants (Solanum lycopersicum) are cultivated in rock wool and infested with whiteflies (Bemisia tabaci). At the 2-leaf stage, the product solution in question is applied to the rock wool. The stated concentration refers to the amount of active compound per plant.
as §2

With `Cc1cc(C)c(C2=C(OC(=O)CC(C)(C)C)C3(CCCC3)OC2=O)c(C)c1` [spiromesifen (II-2), spiromesifen], the Mortality was 20% in series [1] (days between application and infestation 14, mortality determined 14 days after infestation); 30% in series [1] (days between application and infestation −1, mortality determined 7 days after infestation); 10% in series [1] (days between application and infestation −1, mortality determined 14 days after infestation); 0% in series [2]; 80% in series [3].
